In US7470442B2, “Confectionary compositions with magnolia bark extract” (GIC Innovations Company, priority 2005, dated 2008):
≈ marks a conversion by molar mass, not a printed value.

Columns and labels:
Format in all cases: cell-based
[1] = tested on: incubated saliva; assay: MIC of surface active agents and emulsifiers on incubated saliva, two-fold serial dilution; details: for MIC (ppm) / MIC: 24 hours at 37° C.; for germ-kill efficacy in words: summary of Table 9
Description: (§1) To evaluate the germ-kill efficacy and synergist effect when two or more germ-kill actives are combined, testing was performed to determine the ratio of MBE to surface active agent. The germ-kill active and/or surface active agent were dissolved in ethanol or sterile water to give an initial concentration 0.1% to 1%. The solution was diluted with a nutrient broth to give an initial concentration of 0.05% to 0.5%, which was then serially diluted two-fold so that each subsequent dilution contained 50% of the compound concentration of the previous dilution while maintaining a constant level of nutrients for each dilution. These dilutions were inoculated with representative oral microorganisms, or incubated saliva, and incubated for 24 hours at 37° C. For each surface active agent, the lowest dilution that was not turbid was registered as the MIC. The MBC was determined by transferring 10 microliter of liquid from non-turbid tubes to fresh growth media and incubated for 48 hours.

[2] = tested on: S. mutans; assay: MIC and fractional inhibitory index of combinations on S. mutans; details: 24 hours at 37° C.
Description: as §1, with “hours. […] (1) where an FIC value of less than 1.0 is synergistic, an FIC between 1.0 and 2.0 is additive, and an FIC greater than 2.0 is antagonistic.” for “hours.”

[3] = tested on: S. mutans biofilm; assay: MIC for formation of S. mutans biofilm in 96-well plates; details: BHI with 0.5% sucrose, 48 h, attached biofilm OD 660 nm
Description: (§2) Further to the results described above, the effect of Magnolia Bark Extract on biofilm formation and removal was compared with different herbal and natural ingredients. Comparative testing was performed using green tea extract, Oolong tea extract, Licorice, and Magnolia Bark Extract. The comparative testing included determining the solubility in water, ethanol, water:ethanol mixtures and other solvents (for example, Tween in water), MIC for growth of S. mutans, MIC for formation of S. mutans biofilm in 96-well plates, and the effect on detachment of S. mutans biofilm. To further evaluate the effect on S. mutans biofilm formation, 96-well microtiter plates were used. Each well contained S. mutans (5×10^6 CFU/ml), and was serially diluted with test compounds and growth medium (brain heart infusion broth (BHI) with 0.5% sucrose). The controls included inoculated growth medium without test compounds. All plates were incubated at 37° C. under aerobic condition with growth estimated spectrophotometrically (660 nm) after 48 h using a microtiter plate reader. Then, the supernatant containing unattached cells was removed from each wells by aspiration, the attached biofilm mass was dissolved with 200 μl 1 N NaOH and the optical density was measured at 660 nm using the microtiter plate reader. Chlorhexidine (40 μg/ml) was used as a positive control.

[4] = tested on: Streptococcus mutans; assay: Minimum-Inhibitory-Concentrations (MIC) study, 96-well microtiter plates; details: 48 hours, 37° C., turbidity at 660 nm
Description: (§3) To evaluate the effectiveness of Magnolia Bark Extract, in vitro tests were conducted with three subgingival plaque bacteria associated with oral malodor. The Minimum-Inhibitory-Concentrations (MIC) study protocol is as follows. Chlorhexidine was used as a positive control and sterile water was used as a negative control. Menthol and Tween 80 was used as a solvent for Magnolia Bark Extract. Tween 80 is the common name for Polysorbate 80. Ninety-six-well microtiter plates were used for this study. Each well contained 5×10^5 colony forming units/ml of bacteria, serially diluted agents and bacterial growth medium. All bacterial cultures were incubated at 37° C. and stationary. Bacterial growth was estimated spectrophotometrically at 660 nm, after 48 hours.

[5] = tested on: Fusobacterium nucleatum; assay: as above; details: 48 hours, 37° C., turbidity at 660 nm
Description: as §3

[6] = tested on: Porphyromonas gingivalis; assay: as above; details: 48 hours, 37° C., turbidity at 660 nm
Description: as §3

[7] = tested on: Porphyromonas gingivalis; assay: Minimum-Bactericidal-Concentrations (MBC), plating on blood agar; details: kills at least 99.9% of initial inoculum
Description: as §3, with “hours. […] The Minimum-Bactericidal-Concentrations (MBC) were determined using the 96-well microtiter plate serial dilutions as described above for MIC studies. Serial dilutions of cultures in wells showing no visible growth were performed and 10 microliters of culture were plated in triplicate on blood agar plates. Viable colonies were scored after incubation of the plates for 48 hours at 37° C. For each test bacterium, the number of colony forming units/ml (CFU/ml) was determined in the initial inoculum. The MBC was defined as the lowest concentration of a test compound that killed at least 99.9% of the cells present in the initial inoculum.” for “hours.”

[8] = tested on: Streptococcus mutans; assay: as above; details: kills at least 99.9% of initial inoculum
[9] = tested on: Fusobacterium nucleatum; assay: as above; details: kills at least 99.9% of initial inoculum
[10] = tested on: S. mutans; assay: MIC for growth of S. mutans (comparative testing); details: Streptococcus mutans, BHI with 0.5% sucrose, 48 h
Description: as §2

[11] = tested on: bacteria from freshly-collected stimulated whole saliva; assay: Mixed culture saliva biofilm on saliva-coated hydroxyapatite discs, timed exposure to actives
Description: Although useful to show the comparative effect of Magnolia Bark Extract on biofilm formation and MIC growth, the foregoing test procedure may not effectively mimic the in vivo exposure of a confectionary composition such as a pressed tablet to a developing plaque biofilm. In an in vivo situation, the active could be exposed to the plaque for a defined period of time at a set frequency (for example, for 5 minutes, three times a day). Therefore, a series of comparative experiments were conducted to mimic the in vivo use of potential active ingredients. To perform the tests the saliva compositions listed below in Tables 2 and 3 were prepared. A mixed culture system that utilizes the bacteria from freshly-collected stimulated whole saliva was used. Saliva cell pellets were used to inoculate saliva-coated hydroxyapatite (S-HA) discs. The discs were placed in 24-well cell culture plates and incubated for up to 3 days. Biofilms were exposed to actives on days 2 and 3 (starting at 18 hours), and quantified on day 4. The number of bacteria was determined by spectrophotometric absorbance or optical density (OD) at 600 nm. The five phases of the experiment were: pellicle formation; bacterial attachment; biofilm growth; exposure to actives; and bacterial enumeration. To form the pellicles, HA Discs were ultrasonically washed in deionized water and air-dried, then autoclaved. The discs were placed in a 24-well plate with 1 ml 50% sterile saliva (1 part sterile whole saliva: 1 part saliva buffer, filter sterilize after preparation) for 2 hours on slow agitation at room temperature. The saliva was suctioned and then the discs were transferred to fresh wells for bacterial attachment. To form the biofilms, the bacterial suspension was removed, and the discs were transferred to fresh wells. One ml of supplemented saliva medium was added and the plate was placed in the incubator for overnight incubation and for the duration of the experiment (up to 72 hours). A stock solution of 1% Magnolia Bark Extract in 60% ethanol was prepared. Magnolia Bark Extract samples were prepared having a concentration range of 125, 250, 500, and 1000 μg/ml (ppm) in a Phosphate-Buffered-Saline (PBS) solution, where the negative control was PBS and the positive control was CHX having a concentration of 0.12%. […] One ml quantities of active ingredients and controls were placed into fresh wells, and the discs were transferred to these wells for 5 minutes. The chlorhexidine control exposure was one minute, two times a day to mimic the standard mouth-rinse procedure. The exposure to active ingredient was carried out at 8:00 AM, 12:00 and 4:00 PM. After the timed exposure, the solution was removed and the discs washed twice with PBS and then transferred to fresh medium. For some experiments, the medium used during the day was TSB (Tryptic Soy Broth) with a 50 μl 40% sterile sucrose solution added to each well (to give a 2% sucrose solution). The medium was not replaced after the mid-day exposure. After overnight incubation (day 2), discs were exposed to controls and actives. On day 3 the biofilms were again exposed to tests and controls. On day 4 the discs were removed from the medium, the medium pH was measured to obtain an indication of metabolic activity, and the discs were placed into tubes with 2.5 ml PBS, vortexed for 20 sec, and then placed into the ultrasonic bath for another 20 sec. The suspension was transferred into cuvettes and the bacterial cell density determined by OD measurements at 600 nm. To evaluate the effect of Magnolia Bark Extract in combination with the surface active agent, sodium lauryl sulfate, five active ingredient solutions were prepared using the procedures described above. […] Also, the MBE solutions were prepared to have a concentration of 500 ppm. Sodium lauryl sulfate was added to two of the Magnolia Bark Extract solutions to obtain SLS concentrations of 0.05% and 0.1% in the Magnolia Bark Extract solutions. […]

[12] = tested on: S. mutans biofilm; assay: Effect on detachment of S. mutans biofilm; details: pre-formed 48 h S. mutans biofilm, 30 min exposure
Description: Further to the results described above, the effect of Magnolia Bark Extract on biofilm formation and removal was compared with different herbal and natural ingredients. Comparative testing was performed using green tea extract, Oolong tea extract, Licorice, and Magnolia Bark Extract. The comparative testing included determining the solubility in water, ethanol, water:ethanol mixtures and other solvents (for example, Tween in water), MIC for growth of S. mutans, MIC for formation of S. mutans biofilm in 96-well plates, and the effect on detachment of S. mutans biofilm. To further evaluate the effect on S. mutans biofilm detachment, sterile 96-well microtiter plates were used where each well was inoculated with S. mutans (5×10^6 CFU/ml), growth medium (BHI supplemented with 0.5% sucrose), and incubated at 37° C. under aerobic condition for biofilm formation. After 48 hours, the non-attached supernatant was aspirated and serially diluted. […] After 30 min, the supernatant was aspirated from wells and the biofilm remaining after treatment was dissolved in 200 μl 1N NaOH, and quantitated at 660 nm using the plate reader. […] If detachment of the biofilm by action of the test compounds occurred, the spectrophotometric absorbance or optical density (OD) should show a decrease compared to the non-treated control.

[13] = CHX 0.12%, one minute, two times a day, day 4
[14] = repeat experiment with SLS, CHX 0.1% (1000 ppm)
[15] = repeat experiment with SLS, SLS 1000 ppm

Which results are given for Sodium Stearoyl Lactylate?
MIC (ppm) [1]: >3000 ppm; germ-kill efficacy in words [1]: weak or non germ-kill actives

Which results are given for `N=C(NCCCCCCNC(=N)NC(=N)Nc1ccc(Cl)cc1)NC(=N)Nc1ccc(Cl)cc1.O=C(O)[C@H](O)[C@@H](O)[C@H](O)[C@H](O)CO.O=C(O)[C@H](O)[C@@H](O)[C@H](O)[C@H](O)CO` [Chlorhexidine gluconate, reference compound]?
MIC (ppm) [1]: 2 ppm; MIC/ppm [2]: 2 ppm

How did the “MIC (ppm)” value [1] turn out when Sodium Brasslate was run?
Its value is 500 ppm.

What about the “germ-kill efficacy in words” value [1] of the same compound?
Its value is “moderate germ-kill efficacy”.

How did the “MIC (ppm)” value [1] turn out when Sucrose Distearate was run?
The value was over 500 ppm.

And the “germ-kill efficacy in words” value [1]?
Its value is “weak or non germ-kill actives”.

Which MIC biofilm formation [3] does the source give for `[H]/N=C(\N/C(=N/[H])NCCCCCCNC(=N)NC(=N)Nc1ccc(Cl)cc1)Nc1ccc(Cl)cc1` [CHX, chlorhexidine] here?
Its MIC biofilm formation is 2.5 µg/mL (≈ 4.95 µM).

And the MIC [4]?
The MIC was 1.25 µg/mL (≈ 2.47 µM).

What about the MIC [5] of the same compound?
Its MIC is 1.25 µg/mL (≈ 2.47 µM).

What about the MIC [6] of the same compound?
The MIC was 1.25 µg/mL (≈ 2.47 µM).

And the MBC [7]?
Its MBC is 1.25 µg/mL (≈ 2.47 µM).

And the MBC [8]?
Its MBC is 1.25 µg/mL (≈ 2.47 µM).

And the MBC [9]?
The MBC was 1.25 µg/mL (≈ 2.47 µM).

What about the MIC [10] of the same compound?
The MIC was 2.5 µg/mL (≈ 4.95 µM).

And the “% OD reduction at 600 nm compared to PBS control” value [11, 13]?
Its value is 84%.

And the “pH of the medium (metabolic activity)” value [11, 13]?
The value was 8.8.

And the “% OD reduction at 600 nm” value [11, 14]?
Its value is 94%.

What about the “pH of the medium (metabolic activity)” value [11, 14] of the same compound?
The value was 8.8.

And the MIC biofilm detachment [12]?
Its MIC biofilm detachment is over 10 µg/mL.

Cocamidopropyl Betaine was tested. Which “germ-kill efficacy in words” value [1] did it give?
Its value is “good germ-kill surface active agents”.

For `CCCCCCCCCCCC(=O)OCCOCCOCCOCCOCCOCCOCCOCCOCCOCCOCCOCCOCCOCCOCCOCCOCCOCCOCCOCCOCC(OCCOCCOCCOCCOCCOCCOCCOCCOCCOCCOCCOCCOCCOCCOCCOCCOCCOCCOCCOCCO)C1OCC(OCCOCCOCCOCCOCCOCCOCCOCCOCCOCCOCCOCCOCCOCCOCCOCCOCCOCCOCCOCCO)C1OCCOCCOCCOCCOCCOCCOCCOCCOCCOCCOCCOCCOCCOCCOCCOCCOCCOCCOCCOCCO` (stereo not shown) [Tween 20, Polysorbate 20], which MIC [1] is on record?
Its MIC is over 1000 µg/mL.

And the “germ-kill efficacy in words” value [1]?
The value was “weak or non germ-kill actives”.

Sucrose Stearate was tested. Which “MIC (ppm)” value [1] did it give?
The value was over 500 ppm.

And the “germ-kill efficacy in words” value [1]?
Its value is “weak or non germ-kill actives”.

`CCCCCCCCCCCCOS(=O)(=O)[O-].[Na+]` [SLS, sodium lauryl sulfate] was tested. Which MIC [1] did it give?
The MIC was 50 µg/mL.

What about the “germ-kill efficacy in words” value [1] of the same compound?
Its value is “good germ-kill surface active agents”.

What about the MIC/ppm [2] of the same compound?
The MIC/ppm was 100 ppm.

What about the “% OD reduction at 600 nm” value [11, 15] of the same compound?
The value was 61%.

What about the “pH of the medium (metabolic activity)” value [11, 15] of the same compound?
The value was 5.7.
